{
  "source": "patent US20070189965A1",
  "about": "“Copper-complex isonitrile positron emission tomography (pet) imaging agent and method” (priority 2004, published 2007)",
  "key": {"[1]": {"assay": "Stability of I-131 MIBG vials on storage: percent of iodine remaining bound", "format": "physicochemical", "procedure": "In order to establish the advantages of the novel process and resulting composition, a series of tests were run utilizing meta iodo benzyl guanidine (MIBG) in which the radionuclide I-131 was the iodine in the MlBG.\nThe MIBG was prepared as follows: eight vials were prepared of MIBG in solution with a radioactive concentration of MIBG of 1 mCi per vial. The MIBG in six of those vials were then stabilized and lyophilized according to the process described in this invention. One vial was frozen and maintained at a temperature of −10 degrees, and another vial was simply refrigerated at approximately 5 degrees.\nSix vials were prepared according to the process in this invention in order to enable several to be reconstituted from the lyophilized state and their activity tallied.\nThe radioactive concentration of MIBG per vial was 1 mCi per vial.\nOne each of the vials was reconstituted after 24, 48, 72 and 168 hours respectively."}, "[2]": {"assay": "Stability of I-131 Hippuran vials on storage: percent remaining bound", "format": "physicochemical", "procedure": "As another example, I-131 Hippuran was prepared. The I-131 Hippuran was prepared as follows: 9 vials were prepared of I-131 Hippuran in solution with a radioactive concentration of MIBG of 1 mCi per vial. Each vial had 4 cc. The I-131 in seven of those vials was then stabilized and lyophilized according to the process described in this invention. One vial was frozen and maintained at a temperature of −10 degrees, and another vial was maintained room temperature. Room temperature was selected because Hippuran is thought to be stable at room temperature even in conjunction with a radioisotope. […]"}, "[3]": {"settings": "Lyophilized and stabilized per invention, stored at room temp., 0 hours, 1 mCi per vial"}},
  "data": [
    {"smiles": "N=C(N)NCc1cccc([131I])c1", "note": "[MIBG, meta iodo benzyl guanidine]", "values": [
      {"measurement": "percent of iodine remaining bound to the MIBG", "setting": "[1]; Frozen −10°, 0 hours", "value": 96.3, "unit": "%"},
      {"measurement": "percent of iodine remaining bound to the MIBG", "setting": "[1]; Frozen −10°, 24 hours", "value": 94, "unit": "%"},
      {"measurement": "percent of iodine remaining bound to the MIBG", "setting": "[1]; Frozen −10°, 48 hours", "value": 91, "unit": "%"},
      {"measurement": "percent of iodine remaining bound to the MIBG", "setting": "[1]; Frozen −10°, 72 hours", "value": 84, "unit": "%"},
      {"measurement": "percent of iodine remaining bound to the MIBG", "setting": "[1]; Frozen −10°, 168 hours (1 wk.)", "value": 72, "unit": "%"},
      {"measurement": "percent of iodine remaining bound to the MIBG", "setting": "[1]; [3]", "value": 96.3, "unit": "%"},
      {"measurement": "percent of iodine remaining bound to the MIBG", "setting": "[1]; Lyophilized and stabilized per invention, stored at room temp., 24 hours", "value": 97, "unit": "%"},
      {"measurement": "percent of iodine remaining bound to the MIBG", "setting": "[1]; Lyophilized and stabilized per invention, stored at room temp., 48 hours", "value": 96.6, "unit": "%"},
      {"measurement": "percent of iodine remaining bound to the MIBG", "setting": "[1]; Lyophilized and stabilized per invention, stored at room temp., 72 hours", "value": 96.2, "unit": "%"},
      {"measurement": "percent of iodine remaining bound to the MIBG", "setting": "[1]; Lyophilized and stabilized per invention, stored at room temp., 168 hours (1 wk.)", "value": 95.9, "unit": "%"},
      {"measurement": "percent of iodine remaining bound to the MIBG", "setting": "[1]; Refrigerated ˜+5°, 0 hours", "value": 96.3, "unit": "%"},
      {"measurement": "percent of iodine remaining bound to the MIBG", "setting": "[1]; Refrigerated ˜+5°, 24 hours", "value": 92, "unit": "%"},
      {"measurement": "percent of iodine remaining bound to the MIBG", "setting": "[1]; Refrigerated ˜+5°, 48 hours", "value": 85, "unit": "%"},
      {"measurement": "percent of iodine remaining bound to the MIBG", "setting": "[1]; Refrigerated ˜+5°, 72 hours", "value": 77, "unit": "%"},
      {"measurement": "percent of iodine remaining bound to the MIBG", "setting": "[1]; Refrigerated ˜+5°, 168 hours (1 wk.)", "value": 55, "unit": "%"}
    ]},
    {"smiles": "O=C(O)CNC(=O)c1ccccc1[131I]", "note": "[I-131 Hippuran]", "values": [
      {"measurement": "percent of Hippuran remaining bound to the 1-123", "setting": "[2]; Frozen −10°, 0 hours", "value": 98, "unit": "%"},
      {"measurement": "percent of Hippuran remaining bound to the 1-123", "setting": "[2]; Frozen −10°, 24 hrs", "value": 97.8, "unit": "%"},
      {"measurement": "percent of Hippuran remaining bound to the 1-123", "setting": "[2]; Frozen −10°, 48 hrs", "value": 97, "unit": "%"},
      {"measurement": "percent of Hippuran remaining bound to the 1-123", "setting": "[2]; Frozen −10°, 72 hrs", "value": 94, "unit": "%"},
      {"measurement": "percent of Hippuran remaining bound to the 1-123", "setting": "[2]; Frozen −10°, 96 hrs", "value": 92.5, "unit": "%"},
      {"measurement": "percent of Hippuran remaining bound to the 1-123", "setting": "[2]; Frozen −10°, 120 hrs", "value": 91},
      {"measurement": "percent of Hippuran remaining bound to the 1-123", "setting": "[2]; [3]", "value": 98, "unit": "%"},
      {"measurement": "percent of Hippuran remaining bound to the 1-123", "setting": "[2]; Lyophilized and stabilized per invention, stored at room temp., 24 hrs", "value": 98.4, "unit": "%"},
      {"measurement": "percent of Hippuran remaining bound to the 1-123", "setting": "[2]; Lyophilized and stabilized per invention, stored at room temp., 48 hrs", "value": 98.6, "unit": "%"},
      {"measurement": "percent of Hippuran remaining bound to the 1-123", "setting": "[2]; Lyophilized and stabilized per invention, stored at room temp., 72 hrs", "value": 98, "unit": "%"},
      {"measurement": "percent of Hippuran remaining bound to the 1-123", "setting": "[2]; Lyophilized and stabilized per invention, stored at room temp., 96 hrs", "value": 98.4, "unit": "%"},
      {"measurement": "percent of Hippuran remaining bound to the 1-123", "setting": "[2]; Lyophilized and stabilized per invention, stored at room temp., 120 hrs", "value": 98.5, "unit": "%"},
      {"measurement": "percent of Hippuran remaining bound to the 1-123", "setting": "[2]; Room Temp. (solution), 0 hours", "value": 98, "unit": "%"},
      {"measurement": "percent of Hippuran remaining bound to the 1-123", "setting": "[2]; Room Temp. (solution), 24 hrs", "value": 96, "unit": "%"},
      {"measurement": "percent of Hippuran remaining bound to the 1-123", "setting": "[2]; Room Temp. (solution), 48 hrs", "value": 95, "unit": "%"},
      {"measurement": "percent of Hippuran remaining bound to the 1-123", "setting": "[2]; Room Temp. (solution), 72 hrs", "value": 94.5, "unit": "%"},
      {"measurement": "percent of Hippuran remaining bound to the 1-123", "setting": "[2]; Room Temp. (solution), 96 hrs", "value": 92, "unit": "%"},
      {"measurement": "percent of Hippuran remaining bound to the 1-123", "setting": "[2]; Room Temp. (solution), 120 hrs", "value": 90, "unit": "%"}
    ]}
  ]
}
